Earlier results, collected in US20040005347A1, “Composition comprising cocoa” (N. V. NUTRICIA, priority 2001, published 2004).

What was measured:
PMS related symptoms = conditions: supplementation
serotonin levels = conditions: in vitro

## [Mg+2] [Magnesium]
PMS related symptoms
  PMS related symptoms, especially those related to mood: improves

## Cn1c(=O)c2c(ncn2C)n(C)c1=O [caffeine]
Serotonin levels
  serotonin levels: increase
